According to patent US5591758A, “Organic nitrates, processes for their preparation and their use in the treatment of cardiovascular diseases” (Laboratoires Hoechst, SA, priority 1991, dated 1997):
Values joined by “and” are separate entries in the source; they are usually repeats but may differ in a detail not shown here. Identical values can stand only once. Counter-ions that a name gives are not always drawn.

System: unanaesthetised hypertensive dogs
Experiment: Haemodynamic effects in unanaesthetised hypertensive dogs
Format: in vivo
Parameters: Δdp/dt / Δdp/dt average: unit not given beside the values; ΔBPs / ΔBPd / ΔLVEDP / ΔBPs average / ΔBPd average / ΔLVEDP average / ΔHR average: unit not given here
Details: for ΔBPd average / ΔBPs average / ΔHR average / ΔLVEDP average / Δdp/dt average: n = 3, 3 mg/kg p.o.; for ΔBPd / ΔBPs / ΔHR / ΔLVEDP / Δdp/dt: single dog
Method: Haemodynamic effects of the compounds according to the invention in unanaesthetised hypertensive dogs (n=3).
Table VI below and FIG. 1 show more particularly the change in the effect of compound (46) on the various haemodynamic parameters as a function of time, the compound being administered p.o. in a dosage of 3 mg/kg.

[1] = 3 mg/kg p.o., 10 min, monohydrochloride, 3 mg/kg
[2] = 3 mg/kg p.o., 20 min, monohydrochloride, 3 mg/kg
[3] = 3 mg/kg p.o., 30 min, monohydrochloride, 3 mg/kg
[4] = 3 mg/kg p.o., 60 min, monohydrochloride, 3 mg/kg
[5] = 3 mg/kg p.o., 90 min, monohydrochloride, 3 mg/kg
[6] = 3 mg/kg p.o., 120 min, monohydrochloride, 3 mg/kg
[7] = 3 mg/kg p.o., 180 min, monohydrochloride, 3 mg/kg
[8] = 3 mg/kg p.o., 240 min, monohydrochloride, 3 mg/kg
[9] = 3 mg/kg p.o., 300 min, monohydrochloride, 3 mg/kg
[10] = 3 mg/kg p.o., 360 min, monohydrochloride, 3 mg/kg

O=C(CNC(=O)[C@@H]1CSCN1)N[C@H]1CO[C@H]2[C@@H]1OC[C@@H]2O[N+](=O)[O-] [Compound 46, 5-[[2-[[(4-L-Thiazolidinyl)carbonyl]amino]-1oxoethyl]amino]-5-deoxy-2-O-nitro-1,4:3,6-dianhydro-L-iditol monohydrochloride] was tested, and the “lowering of left ventricular end-diastolic pressure (LVEDP)” value (3 mg/kg p.o.) was “significant, pronounced and prolonged”, the “lowering of systolic blood pressure (BPs)” value (3 mg/kg p.o.) was “significant, pronounced and prolonged” and the ΔBPd average (10 min) was -3. It also gave a ΔBPs average (10 min) of -5, a ΔHR average (10 min) of 3 and a ΔLVEDP average (10 min) of -1. The Δdp/dt average (10 min) was -167, the ΔBPd average (20 min) was 0 and the ΔBPs average (20 min) was -2. For the same molecule, the ΔHR average (20 min) was 17, the ΔLVEDP average (20 min) was -2 and the Δdp/dt average (20 min) was 33. The ΔBPd average (30 min) was 2, the ΔBPs average (30 min) was -2 and the ΔHR average (30 min) was 7. The ΔLVEDP average (30 min) was -1, the Δdp/dt average (30 min) was 100 and the ΔBPd average (60 min) was 0. For the same molecule, the ΔBPs average (60 min) was -22, the ΔHR average (60 min) was -7 and the ΔLVEDP average (60 min) was -4. For the same molecule, the Δdp/dt average (60 min) was 33, the ΔBPd average (90 min) was 3 and the ΔBPs average (90 min) was -28. It also gave a ΔHR average (90 min) of 23, a ΔLVEDP average (90 min) of -5 and a Δdp/dt average (90 min) of -33. For the same molecule, the ΔBPd average (120 min) was 5, the ΔBPs average (120 min) was -28 and the ΔHR average (120 min) was 33. It also gave a ΔLVEDP average (120 min) of -6, a Δdp/dt average (120 min) of 0 and a ΔBPd average (180 min) of 8. For the same molecule, the ΔBPs average (180 min) was -25, the ΔHR average (180 min) was 32 and the ΔLVEDP average (180 min) was -5. The Δdp/dt average (180 min) was 0, the ΔBPd average (240 min) was 8 and the ΔBPs average (240 min) was -30. The ΔHR average (240 min) was 27, the ΔLVEDP average (240 min) was -5 and the Δdp/dt average (240 min) was -133. It also gave a ΔBPd average (300 min) of 8, a ΔBPs average (300 min) of -27 and a ΔHR average (300 min) of 27. For the same molecule, the ΔLVEDP average (300 min) was -2, the Δdp/dt average (300 min) was 33 and the ΔBPd average (360 min) was 8. It also gave a ΔBPs average (360 min) of -23, a ΔHR average (360 min) of 13 and a ΔLVEDP average (360 min) of -4. The Δdp/dt average (360 min) was -133, the ΔBPd [1] was -5 and 0 and the ΔBPs [1] was -5 and 0 and -10. The ΔHR [1] was 0 and 10, the ΔLVEDP [1] was -1 and 0 and -2 and the Δdp/dt [1] was -100 and 0 and -400. For the same molecule, the ΔBPd (3 mg/kg p.o., 20 min) was 0, the ΔBPs [2] was 0 and -5 and the ΔHR [2] was 35 and 0 and 15. For the same molecule, the ΔLVEDP [2] was -3 and 0 and -2, the Δdp/dt [2] was 300 and 0 and -200 and the ΔBPd [3] was 5 and 0. For the same molecule, the ΔBPs [3] was 0 and -5, the ΔHR [3] was 0 and 10 and the ΔLVEDP [3] was 0 and -3. For the same molecule, the Δdp/dt [3] was 0 and 500 and -200, the ΔBPd [4] was 5 and 0 and -5 and the ΔBPs [4] was -25 and -15. The ΔHR [4] was 10 and -10 and -20, the ΔLVEDP [4] was -7 and -3 and the Δdp/dt [4] was 0 and 500 and -400. For the same molecule, the ΔBPd [5] was 5 and 10 and -5, the ΔBPs [5] was -30 and -25 and the ΔHR [5] was 35 and 45 and -10. The ΔLVEDP [5] was -7 and -6 and -3, the Δdp/dt [5] was -200 and 500 and -400 and the ΔBPd [6] was 5 and 10 and 0. The ΔBPs [6] was -30 and -25, the ΔHR [6] was 55 and 63 and -20 and the ΔLVEDP [6] was -9 and -7 and -2. For the same molecule, the Δdp/dt [6] was -400 and 800, the ΔBPd [7] was 10 and 15 and 0 and the ΔBPs [7] was -15 and -25 and -35. For the same molecule, the ΔHR [7] was 35 and 40 and 20, the ΔLVEDP [7] was -7 and -4 and the Δdp/dt [7] was -300 and 500 and -200. The ΔBPd [8] was 10 and 15 and 0, the ΔBPs [8] was -15 and -35 and -40 and the ΔHR [8] was 40 and 20. For the same molecule, the ΔLVEDP [8] was -7 and -5 and -4, the Δdp/dt [8] was -500 and 500 and -400 and the ΔBPd [9] was 10 and 15 and 0. For the same molecule, the ΔBPs [9] was -15 and -45 and -40, the ΔHR [9] was 45 and 40 and -5 and the ΔLVEDP [9] was -4 and 0 and -3. For the same molecule, the Δdp/dt [9] was -300 and 800 and -400, the ΔBPd [10] was 10 and 15 and 0 and the ΔBPs [10] was -10 and -25 and -35. For the same molecule, the ΔHR [10] was 15 and 10, the ΔLVEDP [10] was -5 and -3 and -4 and the Δdp/dt [10] was -500 and 500 and -400.
